Laboratory results as given in patent publication US20100196264A1, “USE OF SOMATOSTATIN ANALOGS IN MYOCARDIAL PERFUSION IMAGING” (THE BRIGHAM AND WOMEN'S HOSPITAL, INC., priority 2007, published 2010).

B1: cholecystokinin (peptide, UniProt P06307 21-115, looked up)
Cholecystokinin: QPVPPADPAGSGLQRAEEAPRRQLRVSQRTDGESRAHLGALLARYIQQARKAPSGRMSIVKNLQNLDPSHRISDRDYMGWMDFGRRSAEEYEYPS
modifications: Cholecystokinin
notes: gastric stimulant

What was measured:
SST3 = SST3 (Homo sapiens, UniProt P32745); conditions: cited from earlier work
Sequence of SST3 (P32745 whole entry, the tested form may be a part): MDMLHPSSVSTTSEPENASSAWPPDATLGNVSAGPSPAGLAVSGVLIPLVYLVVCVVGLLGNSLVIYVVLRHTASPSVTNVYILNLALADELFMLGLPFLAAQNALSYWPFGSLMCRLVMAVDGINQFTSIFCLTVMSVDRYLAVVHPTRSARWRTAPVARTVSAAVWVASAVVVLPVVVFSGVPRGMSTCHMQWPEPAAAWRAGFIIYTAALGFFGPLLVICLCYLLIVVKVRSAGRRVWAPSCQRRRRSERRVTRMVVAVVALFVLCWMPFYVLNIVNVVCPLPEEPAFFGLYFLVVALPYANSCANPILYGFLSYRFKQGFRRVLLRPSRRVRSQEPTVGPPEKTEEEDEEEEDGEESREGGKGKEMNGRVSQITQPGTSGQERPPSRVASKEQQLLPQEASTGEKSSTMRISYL

[1] = system: extracardiac uptake of radiotracer; assay: Myocardial perfusion imaging with periprocedural somatostatin analog (examples); assay type: in vivo
SST4 = SST4 (Homo sapiens, UniProt P31391); conditions: cited from earlier work
Sequence of SST4 (P31391 whole entry): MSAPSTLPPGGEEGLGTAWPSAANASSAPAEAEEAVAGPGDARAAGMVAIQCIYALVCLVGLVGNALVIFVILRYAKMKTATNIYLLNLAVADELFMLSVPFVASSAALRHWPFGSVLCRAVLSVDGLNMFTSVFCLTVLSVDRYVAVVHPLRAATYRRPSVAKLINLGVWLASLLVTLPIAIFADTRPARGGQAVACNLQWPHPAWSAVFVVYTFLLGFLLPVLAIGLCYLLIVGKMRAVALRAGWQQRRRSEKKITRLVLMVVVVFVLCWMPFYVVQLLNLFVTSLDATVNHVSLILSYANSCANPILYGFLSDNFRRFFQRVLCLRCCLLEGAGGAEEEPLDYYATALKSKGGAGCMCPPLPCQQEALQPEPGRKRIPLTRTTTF

SST1 = SST1 (Homo sapiens, UniProt P30872); conditions: cited from earlier work
Sequence of SST1 (P30872 whole entry): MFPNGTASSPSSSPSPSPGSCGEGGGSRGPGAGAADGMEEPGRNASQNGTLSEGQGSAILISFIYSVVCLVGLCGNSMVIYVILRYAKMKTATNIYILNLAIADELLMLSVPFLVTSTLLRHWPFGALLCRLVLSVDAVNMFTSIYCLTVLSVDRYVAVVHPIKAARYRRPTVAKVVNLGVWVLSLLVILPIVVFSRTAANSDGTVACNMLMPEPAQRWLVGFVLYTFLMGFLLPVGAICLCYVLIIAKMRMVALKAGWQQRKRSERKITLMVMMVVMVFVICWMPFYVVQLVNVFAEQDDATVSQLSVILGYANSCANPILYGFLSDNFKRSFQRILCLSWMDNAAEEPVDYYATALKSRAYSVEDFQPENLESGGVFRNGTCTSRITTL

SST2 = SST2 (Homo sapiens, UniProt P30874); conditions: cited from earlier work
Sequence of SST2 (P30874 whole entry, the tested form may be a part): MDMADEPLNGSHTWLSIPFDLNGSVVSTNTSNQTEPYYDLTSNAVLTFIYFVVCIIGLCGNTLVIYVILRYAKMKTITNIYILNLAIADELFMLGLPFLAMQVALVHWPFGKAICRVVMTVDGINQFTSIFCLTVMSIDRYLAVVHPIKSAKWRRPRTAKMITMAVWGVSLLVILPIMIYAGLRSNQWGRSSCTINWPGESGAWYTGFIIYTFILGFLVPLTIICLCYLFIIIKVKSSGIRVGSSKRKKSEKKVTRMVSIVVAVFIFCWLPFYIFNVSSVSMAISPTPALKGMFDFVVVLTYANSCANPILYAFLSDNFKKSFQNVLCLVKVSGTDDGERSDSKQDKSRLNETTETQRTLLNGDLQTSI

portal vein flow = conditions: infusion at various infusion concentrations; adapted from Digestion 1999; 60:132-140; cited from earlier work
[2] = system: gastric mucosal blood flow; conditions: fifteen minutes after a single bolus injection; laser Doppler flowmeter; adapted from Surg Endosc (2003) 17: 1570-1572; cited from earlier work
[3] = system: abdominal radiotracer uptake; conditions: literature, cited from earlier work; for obscuring effect of abdominal radiotracer uptake: myocardial perfusion imaging
[4] = typical administration at rest; Cardiolite Product Insert; cited from earlier work

Row | Molecule | affinity for SST3 (in words) (SST3) | affinity for SST4 (in words) (SST4) | affinity for SST1 (in words) (SST1) | affinity for SST2 (in words) (SST2) | obscuring effect of abdominal radiotracer uptake [3] | other results
1 | CC(C)[C@@H]1NC(=O)[C@H](CCCCN)NC(=O)[C@@H](Cc2c[nH]c3ccccc23)NC(=O)[C@H](Cc2ccc(O)cc2)NC(=O)[C@@H](NC(=O)[C@H](N)Cc2ccc3ccccc3c2)CSSC[C@@H](C(=O)N[C@H](C(N)=O)[C@@H](C)O)NC1=O [lanreotide] | displaying affinity | virtually no affinity | virtually no affinity | displaying affinity | – | extracardiac uptake of radiotracer ([1]; 200 mcg bolus thirty minutes prior to radiotracer, then 200 mcg per hour infusion for rest injections, treadmill exercise stress): reduced
2 | C[C@@H](O)[C@@H]1NC(=O)[C@H](CCCCN)NC(=O)[C@@H](Cc2c[nH]c3ccccc23)NC(=O)[C@H](Cc2ccccc2)NC(=O)[C@@H](NC(=O)[C@H](N)Cc2ccccc2)CSSC[C@@H](C(=O)N[C@H](CO)[C@@H](C)O)NC1=O [Octreotide, octreotide] | displaying affinity | virtually no affinity | virtually no affinity | displaying affinity | – | extracardiac uptake of radiotracer ([1]; 100 mcg bolus fifteen minutes prior to radiotracer, then 100 mcg per hour constant infusion, adenosine stress): reduced; extracardiac uptake of radiotracer ([1]; 100 mcg bolus ten minutes prior to radiotracer, second 100 mcg bolus ten minutes prior to adenosine stress): reduced; portal vein flow (portal vein flow): decrease; reduction in gastric mucosal blood flow [2]: 50%
3 | CCN(CC)CCNC(=O)c1cc(Cl)c(N)cc1OC [metoclopromide] | – | – | – | – | did not significantly decrease | –
4 | [C-]#[N+]CC(C)(C)OC.[C-]#[N+]CC(C)(C)OC.[C-]#[N+]CC(C)(C)OC.[C-]#[N+]CC(C)(C)OC.[C-]#[N+]CC(C)(C)OC.[C-]#[N+]CC(C)(C)OC.[Tc] [Tc-99m-setsamibi] | – | – | – | – | – | total dose absorbed into the liver [4]: 19%; total dose taken into the heart [4]: 1.2%
5 | Cn1c(=O)c2[nH]cnc2n(C)c1=O [aminophyllin] | – | – | – | – | – | artifacts in images taken after the dipyridamole injection ([3]; used to counter dipyridamole stress): does not prevent artifacts
6 | B1 | – | – | – | – | without success | –
